Results: patent US6071905A, “Biologically active substance on the basis of tetracyclic nitrogen heterocycles of pyrimidine row” (Natural Drug Sciences, LLC, priority 1998, dated 2000)

Tested on: M. tuberculosis 16R
Assay: action on pathogenic mycobacteria from patients, Lowenstein-Jensen medium, M. tuberculosis 16R
Format: cell-based
Conditions: title: concentration of compound 10.0 g/l; 30 days; resistant to control compounds

Row | Structure (SMILES) | antimicrobial action, M. tuberculosis 16R
1 | [H]/N=C(/N)N[C@H]1[C@H](O)[C@@H](O)[C@H](O[C@@H]2O[C@@H](C)[C@](O)(C=O)[C@H]2O[C@@H]2O[C@@H](CO)[C@H](O)[C@@H](O)[C@@H]2NC)[C@@H](N/C(N)=N\[H])[C@@H]1O [Streptomycin, reference compound] | growth
2 | CO[C@H]1/C=C/O[C@@]2(C)Oc3c(C)c(O)c4c(O)c(cc(O)c4c3C2=O)NC(=O)/C(C)=C\C=C\[C@H](C)[C@H](O)[C@@H](C)[C@@H](O)[C@@H](C)[C@H](OC(C)=O)[C@@H]1C [Rifamycin, reference compound] | growth
3 | NNC(=O)c1ccncc1 [Isoniazid, hydrazide of izonicotinic acid, reference compound] | growth
4 | CC[C@@H](CO)NCCN[C@@H](CC)CO [Ethambutol, reference compound] | growth
